Earlier results in patent US5817671A, “5-HT1F agonists” (Eli Lilly and Company, priority 1997, dated 1998).

Assays:
[1] = test system: neurogenic inflammation, peptide extravasation; conditions: Moskowitz, Neurology 43(suppl. 3), S16-S20 (1993)
[2] = in vivo
[3] = in vivo; remark: listed apart in the source
[4] = treatment of migraine
[5] = test system: exploratory behavior of arthritic rats; conditions: arthritic animals; Larsen and Arnt (1985)
[6] = biological target: T1, 5-HT1F receptor (Homo sapiens, UniProt P30939); conditions: reported by Weinshank et al., WO93/14201
T1 sequence (P30939 1-366): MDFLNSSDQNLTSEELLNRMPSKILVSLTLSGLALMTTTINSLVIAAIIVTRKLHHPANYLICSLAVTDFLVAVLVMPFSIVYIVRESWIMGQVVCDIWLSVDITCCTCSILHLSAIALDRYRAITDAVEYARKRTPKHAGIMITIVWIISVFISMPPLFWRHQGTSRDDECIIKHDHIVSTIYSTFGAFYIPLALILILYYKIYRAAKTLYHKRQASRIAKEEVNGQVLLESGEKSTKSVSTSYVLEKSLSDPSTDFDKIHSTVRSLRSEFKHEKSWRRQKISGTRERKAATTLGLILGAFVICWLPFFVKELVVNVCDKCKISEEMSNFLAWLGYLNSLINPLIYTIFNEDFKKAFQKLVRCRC

Compound: CNS(=O)(=O)Cc1ccc2[nH]cc(CCN(C)C)c2c1 [Sumatriptan]
- block of neurogenic inflammation (in words) [1]: neurogenic inflammation is blocked
- bioavailability (in words) [2]: low bioavailability
- duration of action (in words) [3]: relatively short duration of action
- undesirable side effects (in words) [4]: undesirable side effects, particularly vasoconstriction

Compound: CN(C)CCCC1(c2ccc(F)cc2)OCc2cc(C#N)ccc21 (stereo not drawn) [citalopram]
- effect on exploratory behavior (in words) [5]: improve exploratory behavior

Compound: NCCc1c[nH]c2ccc(O)cc12 [serotonin]
- inhibition of forskolin stimulated cAMP production (in words) [6]: inhibit forskolin stimulated cAMP production
